Measurements from US20220323414A1, “FARNESOID X RECEPTOR AGONISTS FOR THE TREATMENT OF DISEASE” (Metacrine, Inc., priority 2018, published 2022).
pEC50: −log10 of the molar value. One block for each compound: values may come before it.

Assays:
[1] = tested on: fibroblast growth factor 19 (FGF19); experiment: Phase 1 MAD pharmacodynamics: plasma FGF19; format: in vivo, human; conditions: healthy subjects, multiple doses 20 mg to 150 mg
Description: (§1) PD: Plasma levels of 7-alpha-hydroxy-4-cholesten-3-one (C4), plasma levels of fibroblast growth factor 19 (FGF19), and levels of total bile acids (for Part B only).
(§2) 6 groups of 10 healthy male subjects each to investigate the safety, tolerability, PK, and PD of multiple oral doses of Compound 1. Subjects in all groups received ascending multiple oral doses of Compound 1 or matching placebo once daily on Days 1 to 14. Dosing was conducted under fasted conditions on each dosing day. Patients in each group received multiple oral doses of 20, 40, 50, 80, 100, and 150 mg of Compound 1 once daily on days 1 to 14 of the study. Eight members of each group received Compound 1, and two members of each group received placebo.

[2] = NASH clinical trial Part 1: plasma levels of Compound 1; format: in vivo, human; conditions: 50 mg, healthy and NASH patients
Description: (§3) Part 1: An open-label, uncontrolled, single-center study assessing 50 mg of Compound 1 treatment for 4 weeks; 10 subjects were enrolled.
Pharmacokinetic Assessments: Blood samples will be taken according to the PK sampling schedule.
(§4) Length of Study: Subjects enrolled in Part 1 participated in the study for approximately 12 weeks, which included a 4-week screening period, 4 weeks (28 days) for the treatment period, and 4 weeks for follow-up. Subjects enrolled in Part 2 will participate in the study for approximately 20 weeks, which includes an approximate 4-week screening period, 12 weeks (84 days) for the treatment period, and 4 weeks for follow-up. • Study Treatment (Part 1): Subjects enrolled in Part 1 received Compound 1 50 mg for 28 consecutive days. • Study Treatment (Part 2): Subjects enrolled in Part 2 will receive Compound 1 (80 mg or 50 mg) or matching placebo for 84 consecutive days.

total bile acids = experiment: Phase 1 MAD pharmacodynamics: total bile acids; format: in vivo, human; conditions: healthy subjects, 50-150 mg/day cohorts, day 14
Description: as §1, §2

hFXR = target: T1, hFXR (Homo sapiens, UniProt Q96RI1); experiment: In Vitro FXR Assay (TK); format: cell-based; conditions: transfected CV-1 cells, luminescence, 18 hrs
T1 construct: expressed in transfected cells; host or cells: CV-1 cells
T1 sequence (Q96RI1 1-486): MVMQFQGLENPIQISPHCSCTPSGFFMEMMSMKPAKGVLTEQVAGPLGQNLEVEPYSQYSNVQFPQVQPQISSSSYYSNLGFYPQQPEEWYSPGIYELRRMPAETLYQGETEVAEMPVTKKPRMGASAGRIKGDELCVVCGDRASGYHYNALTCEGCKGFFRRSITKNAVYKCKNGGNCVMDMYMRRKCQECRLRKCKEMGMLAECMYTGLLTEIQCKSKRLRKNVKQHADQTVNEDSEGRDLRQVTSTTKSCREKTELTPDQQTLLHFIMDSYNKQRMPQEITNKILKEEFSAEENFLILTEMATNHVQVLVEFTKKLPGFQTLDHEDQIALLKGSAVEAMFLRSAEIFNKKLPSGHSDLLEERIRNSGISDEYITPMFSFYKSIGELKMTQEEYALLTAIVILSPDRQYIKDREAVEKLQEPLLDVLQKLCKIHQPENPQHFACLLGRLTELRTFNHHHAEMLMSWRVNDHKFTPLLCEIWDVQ
T1 sequence (P19793 1-462 partner): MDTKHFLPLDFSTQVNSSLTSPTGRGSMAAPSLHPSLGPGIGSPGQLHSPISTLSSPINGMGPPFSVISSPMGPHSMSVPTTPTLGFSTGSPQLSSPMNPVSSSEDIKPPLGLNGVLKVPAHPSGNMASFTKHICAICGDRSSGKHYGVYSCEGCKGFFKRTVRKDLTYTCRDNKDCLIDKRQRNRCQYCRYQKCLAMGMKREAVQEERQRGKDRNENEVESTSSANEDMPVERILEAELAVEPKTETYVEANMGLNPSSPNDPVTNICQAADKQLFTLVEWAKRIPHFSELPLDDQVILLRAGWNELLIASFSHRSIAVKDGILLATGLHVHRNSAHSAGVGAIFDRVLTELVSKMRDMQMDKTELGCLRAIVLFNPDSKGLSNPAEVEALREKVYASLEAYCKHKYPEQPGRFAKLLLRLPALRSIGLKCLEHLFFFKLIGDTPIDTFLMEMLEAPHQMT
Description: CV-1 cells were seeded at a density of 2,000,000 cells in a T175 flask with DMEM+10% charcoal double-stripped FBS and incubated at 37° C. in 5% CO2 for 18 h (O/N).
After 18 h of incubation, the medium in the T175 flask was changed with fresh DMEM+10% charcoal super-stripped serum. In a polypropylene tube, 2500 μL OptiMEM (Life Technologies, Cat #31985-062) was combined with expression plasmids for hFXR, hRXR, TK-ECRE-luc and pCMX-YFP. The tube was then briefly vortexed and incubated at room temperature for 5 minutes. Transfection reagent (X-tremeGENE HP from Roche, Cat #06 366 236 001) was added to the OptiMEM/plasmid mixture vortexed and incubated at room temperature for 20 minutes. Following incubation, the transfection reagent/DNA mixture complex was added to cells in the T175 flask and the cells were incubated at 37° C. in 5% CO2 for 18 h (O/N).
Compounds were serially diluted in DMSO and added to transfected CV-1 cells. The cells were then incubated for 18 hrs. The next day cells were lysed and examined for luminescence.

[3] = tested on: 7-alpha-hydroxy-4-cholesten-3-one (C4); experiment: Phase 1 MAD pharmacodynamics: plasma C4; format: in vivo, human; conditions: healthy subjects
Description: as §1, §2

[4] = Phase 1 multiple ascending dose PK in healthy subjects (plasma Compound 1 concentrations); format: in vivo, human
Description: Purpose: The purposes of this study was to assess the safety and tolerability of single and multiple oral doses of Compound 1, to characterize the pharmacokinetics (PK) of single and multiple oral doses of Compound 1, to characterize the pharmacodynamics (PD) of single and multiple oral doses of Compound 1, and to identify the recommended multiple oral dose level(s) of Compound 1 for future studies in patients. The study was a first-in-human, 2-part, single-center Phase 1, randomized, double-blind, placebo-controlled study in healthy male subjects.
PK: Plasma Compound 1 concentrations, Plasma PK parameters.
as §2

[5] = tested on: gamma-glutamyl transferase (GGT); experiment: NASH clinical trial Part 1: GGT; format: in vivo, human; conditions: NASH patients, 50 mg daily
Description: as §3, §4
The resulting percent changes from baseline for these biomarkers can be seen in FIG. 6A, FIG. 6B.

[6] = tested on: subjects with NASH (liver fat content); experiment: NASH clinical trial Part 1: hepatic fat; format: in vivo, human; conditions: NASH patients, 50 mg daily, after 28 days
Description: Purpose: The purposes of this study was to evaluate the safety and tolerability of Compound 1 monotherapy in subjects with NASH, to characterize the pharmacokinetics (PK) of Compound 1, to characterize the pharmacodynamics (PD) of Compound 1 dose and response, to estimate the activity of Compound 1 using Magnetic Resonance Imaging-Proton Density Fat Fraction (MRI-PDFF) and NASH fibrosis biomarkers.
as §3
Length of Study: Subjects enrolled in Part 1 participated in the study for approximately 12 weeks, which included a 4-week screening period, 4 weeks (28 days) for the treatment period, and 4 weeks for follow-up. […]
The 10 patients with NASH who enrolled in the study received 50 mg doses of Compound 1 daily for a period of 28 days as described above. Hepatic fat levels in each patient were assessed prior to treatment with Compound 1, after 28 days of treatment with Compound 1, then again 28 days after cessation of treatment with Compound 1.

[7] = tested on: alanine aminotransferase (ALT); experiment: NASH clinical trial Part 1: ALT; format: in vivo, human; conditions: NASH patients, 50 mg daily
Description: as §3, §4
Levels of alanine aminotransferase (ALT) and gamma-glutamyl transferase (GGT) were assessed in subjects prior to administration of Compound 1, after 14 days of dosing of Compound 1, and after 28 days of dosing of Compound 1. The resulting percent changes from baseline for these biomarkers can be seen in FIG. 6A, FIG. 6B.

[8] = tested on: SCID mice with CD4+CD45RB high T-cell transfer colitis; experiment: Adoptive T-cell transfer colitis mouse model; format: in vivo; conditions: for reduction of histopathology sum score: vehicle sum score 10
Description: Adoptive T-cell transfer colitis model is accepted as a relevant mouse model for human inflammatory bowel disease (IBD). To induce colitis in this model, the CD4 T-lymphocyte population is isolated from the spleens of donor mice. Subsequently, a subpopulation of CD4+CD45RB high T-cells is purified by cell sorting using flow cytometry. The purified CD4+CD45RB high T-cells are injected into the peritoneal cavity of the recipient severe combined immunodeficiency (SCID) mice. Colitis develops approximately three to six weeks after T-cell transfer, which is monitored by loss of body weight, inconsistent stool or bloody diarrhea. Testing of combinations of an FXR agonist and an additional therapeutic agent described herein is initiated at the same time of injecting purified CD4+CD45RBhigh T-cells to the recipient SCID mice. Alternatively, the combinations of an FXR agonist and an additional therapeutic agent described herein are administered two or three weeks post T-cell transfer, when colitis has already developed in the model. During the period of administering the combinations of an FXR agonist and an additional therapeutic agent described herein to mice, the therapeutic effects may be monitored by observations on body weights, stool consistency, or rectal bleeding. After euthanasia, the disease development and effects of the compounds are further quantified by measuring colon weight and length, and colon histology by H&E staining for inflammation and structural changes in mucosa, and protein and RNA expression of genes related to the disease.

- plasma levels over the 24 hour period after dosing [2]: remained nearly constant
- pEC50 (hFXR): ≥ 6.60
SMILES: COc1ccc([C@H]2CC[C@H](CN(c3cccc(-c4cnn(C5CC5)c4)c3)C(=O)[C@H]3CC[C@H](O)CC3)CC2)cc1C [Compound 1]
- mean FGF19 levels [1]: increased
- time of maximum increase in mean FGF19 levels [1]: 6 to 10 hours post dose
- change in bile acid levels (total bile acids): decrease in bile acid levels
- dose at which the decrease in C4 levels was notable ([3]; Day 14): ≥ 50 mg
- mean C4 levels at 24 hours post dose ([3]; Day 14): remained decreased
- mean C4 levels versus placebo ([3]; multiple doses 20 mg to 150 mg, Day 14, most dose levels): lower than for placebo treatment
- plasma levels at 24 hours following dosing ([4]; 14 days once daily oral dosing): high levels in the plasma at 24 hours following dosing
- plasma drug exposure with dose ([4]; 14 days once daily oral, 20 mg to 150 mg): increase in plasma drug exposure with dose
- GGT levels decrease [5]: 23.2%
- GGT decrease from baseline ([5]; day 28): 36.3%
- average reduction in fatty liver deposits from baseline [6]: 20.3%
- ALT decrease from baseline ([7]; day 14): 7.9%
- ALT below baseline ([7]; day 28): 16.5%

SMILES: COc1ncc(-c2cccc(N(C[C@H]3CC[C@H](c4ccc(OC)c(C)c4)CC3)C(=O)[C@H]3CC[C@H](O)CC3)c2)s1 [Compound 2, (1R,4R)-4-hydroxy-N-(((1R,4R)-4-(4-methoxy-3-methylphenyl)cyclohexyl)methyl)-N-(3-(2-methoxythiazol-5-yl)phenyl)cyclohexane-1-carboxamide]
- reduction in colon W/L as compared to vehicle ([8]; 10 mg/kg): 41%
- reduction of histopathology sum score ([8]; 10 mg/kg): 71%
- reduction in colon W/L as compared to vehicle ([8]; 30 mg/kg): 38%
- reduction of histopathology sum score ([8]; 30 mg/kg): 74%
- reduction in body weight from baseline caused by T-cell transfer ([8]; 12% body weight reduction after CD4+CD45RBhi T-cell transfer, Compound 2 at 10 mg/kg): reversed
- efficacy in reducing colitis relative to comparators ([8]; adoptive T-cell transfer model): efficacy superior to CsA and comparable to anti-IL-12/23 treatment
